According to ChEMBL document CHEMBL1128401, “Structure-activity relationships in the 8-amino-6,7,8,9-tetrahydro-3H-benz[e]indole ring system. 1. Effects of substituents in the aromatic system on serotonin and dopamine receptor subtypes” (J Med Chem, 1995):
Calls of active or inactive are those of the source. No cut-off for these calls is given here.

How the values were obtained:
[1] = target: T1, 5-hydroxytryptamine receptor 1A (Rattus norvegicus, UniProt P19327); test: Binding affinity against 5-hydroxytryptamine 1A receptor from CHO-K1 cells, using [3H]8-OH-DPAT as the radioligand.; type: cell-based
T1 sequence (P19327 whole entry): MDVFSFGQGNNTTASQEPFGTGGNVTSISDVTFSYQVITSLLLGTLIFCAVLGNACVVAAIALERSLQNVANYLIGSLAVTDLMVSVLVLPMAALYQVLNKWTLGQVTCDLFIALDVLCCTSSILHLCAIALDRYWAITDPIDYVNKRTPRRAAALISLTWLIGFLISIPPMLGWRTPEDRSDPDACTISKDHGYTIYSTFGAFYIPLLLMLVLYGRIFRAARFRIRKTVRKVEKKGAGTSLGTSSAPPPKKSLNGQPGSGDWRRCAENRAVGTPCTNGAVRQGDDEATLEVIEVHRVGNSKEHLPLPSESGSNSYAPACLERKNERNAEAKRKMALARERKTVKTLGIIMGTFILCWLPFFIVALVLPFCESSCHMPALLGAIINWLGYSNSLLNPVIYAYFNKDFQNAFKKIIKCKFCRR

[2] = target: 5-hydroxytryptamine receptor 1B (Homo sapiens, UniProt P28222); test: Binding affinity against 5-hydroxytryptamine 1D receptor beta expressed in CHO-K1 cells, using [3H]5-HT as the radioligand.; type: cell-based
Chain of 5-hydroxytryptamine receptor 1B (P28222 whole entry): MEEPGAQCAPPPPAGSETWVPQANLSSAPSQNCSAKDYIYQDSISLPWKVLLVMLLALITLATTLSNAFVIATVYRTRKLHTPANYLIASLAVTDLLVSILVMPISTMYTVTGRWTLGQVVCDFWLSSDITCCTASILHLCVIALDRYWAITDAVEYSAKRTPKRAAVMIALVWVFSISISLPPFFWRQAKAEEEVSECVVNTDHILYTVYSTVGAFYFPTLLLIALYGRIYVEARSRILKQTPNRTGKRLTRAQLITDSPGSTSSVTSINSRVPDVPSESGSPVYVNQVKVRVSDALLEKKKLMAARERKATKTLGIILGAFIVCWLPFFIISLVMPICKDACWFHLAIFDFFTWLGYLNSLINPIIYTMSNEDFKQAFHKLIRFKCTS

[3] = target: 5-hydroxytryptamine receptor 1D (Homo sapiens, UniProt P28221); test: Binding affinity against 5-hydroxytryptamine 1D receptor alpha expressed in CHO-K1 cells, using [3H]-5-HT as the radioligand.; type: cell-based; settings: read-out: Ki
Chain of 5-hydroxytryptamine receptor 1D (P28221 whole entry): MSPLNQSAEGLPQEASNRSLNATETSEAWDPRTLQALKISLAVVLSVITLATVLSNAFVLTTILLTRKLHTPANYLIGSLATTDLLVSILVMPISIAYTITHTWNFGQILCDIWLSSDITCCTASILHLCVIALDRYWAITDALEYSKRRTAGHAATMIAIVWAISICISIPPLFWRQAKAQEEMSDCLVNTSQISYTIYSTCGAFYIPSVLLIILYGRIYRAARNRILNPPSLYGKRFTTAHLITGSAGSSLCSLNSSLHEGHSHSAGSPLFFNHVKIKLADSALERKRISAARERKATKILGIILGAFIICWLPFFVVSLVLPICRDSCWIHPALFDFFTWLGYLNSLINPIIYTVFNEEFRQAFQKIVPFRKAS

[4] = target: T2, D(2) dopamine receptor (Rattus norvegicus, UniProt P61169); test: Binding affinity against Dopamine receptor D2 from CHO-K1 cells, using [3H]U-86,170 as the radioligand.; type: cell-based
T2 sequence (P61169 whole entry): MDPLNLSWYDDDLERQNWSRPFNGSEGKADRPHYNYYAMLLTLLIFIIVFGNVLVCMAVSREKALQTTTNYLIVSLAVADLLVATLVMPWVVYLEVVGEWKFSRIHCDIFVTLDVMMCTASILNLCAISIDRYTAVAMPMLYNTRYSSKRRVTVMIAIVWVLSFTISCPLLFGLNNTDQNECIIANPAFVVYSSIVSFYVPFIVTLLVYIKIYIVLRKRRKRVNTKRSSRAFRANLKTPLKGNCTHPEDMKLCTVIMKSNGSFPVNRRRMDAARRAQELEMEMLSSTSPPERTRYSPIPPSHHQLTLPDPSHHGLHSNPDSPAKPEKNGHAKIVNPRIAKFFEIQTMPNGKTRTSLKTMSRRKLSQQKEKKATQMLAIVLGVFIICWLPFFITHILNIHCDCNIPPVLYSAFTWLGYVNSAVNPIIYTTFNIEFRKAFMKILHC

[5] = target: T3, D(3) dopamine receptor (Rattus norvegicus, UniProt P19020); test: Binding affinity against Dopamine receptor D3 from CHO-K1 cells, using [3H]spiperone as the radioligand.; type: cell-based
T3 sequence (P19020 whole entry): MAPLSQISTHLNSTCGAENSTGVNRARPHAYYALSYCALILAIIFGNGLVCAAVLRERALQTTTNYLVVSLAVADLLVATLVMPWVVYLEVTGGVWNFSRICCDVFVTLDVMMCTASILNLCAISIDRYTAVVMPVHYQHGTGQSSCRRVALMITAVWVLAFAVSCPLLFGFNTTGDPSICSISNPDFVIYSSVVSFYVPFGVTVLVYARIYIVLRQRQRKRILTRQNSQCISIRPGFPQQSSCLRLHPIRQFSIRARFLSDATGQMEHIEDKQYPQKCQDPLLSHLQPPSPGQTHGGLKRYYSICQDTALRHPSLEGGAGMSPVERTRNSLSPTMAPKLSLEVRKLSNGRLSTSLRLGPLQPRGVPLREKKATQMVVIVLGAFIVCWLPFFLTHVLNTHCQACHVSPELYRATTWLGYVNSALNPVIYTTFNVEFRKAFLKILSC

[6] = test system: Rattus norvegicus; test: The compound was tested in vivo for DOPA accumulation in hemispheres (cortex) against reserpine-pretreated rats;I= inactive at the highest dose tested; type: functional, organism-based
[7] = test system: Rattus norvegicus; test: compound was tested in vivo for 5-HTP accumulation in corpus striatum against reserpine-pretreated rats, activity expressed as ED50; type: functional
[8] = test system: Rattus norvegicus; test: Compound was tested in vivo for DOPA accumulation in corpus striatum against reserpine-pretreated rats;P= significant partial reduction only at the highest dose tested (40).; type: functional, organism-based
[9] = test system: Rattus norvegicus; test: In vivo for 5-HTP accumulation in corpus striatum against reserpine-pretreated rats.; type: functional
[10] = test system: Rattus norvegicus; test: Compound was tested in vivo for 5-HTP accumulation in hemispheres (cortex) against reserpine-pretreated rats; significant partial reduction only at the highest dose tested (40).; type: functional, organism-based
[11] = test system: Rattus norvegicus; test: In vivo for 5-HTP accumulation in limbic system against reserpine-pretreated rats.; type: functional
[12] = test system: Rattus norvegicus; test: The Compound was tested in vivo for DOPA accumulation in hemispheres (cortex) against reserpine-pretreated rats;I= inactive at the highest dose (40); type: functional, organism-based
[13] = test system: Rattus norvegicus; test: The Compound was tested in vivo for DOPA accumulation in limbic system against reserpine-pretreated rats; P=significant partial reduction only at the highest dose tested (40).; type: functional, organism-based
[14] = target: T2, D(2) dopamine receptor; test: Binding affinity against Dopamine receptor D2 expressed in CHO-K1 cells, using [3H]U-86170 as the radioligand.; type: cell-based
[15] = target: T3, D(3) dopamine receptor; test: Binding affinity against Dopamine receptor D3 expressed in CHO-K1 cells, using [3H]spiperone as the radioligand.; type: cell-based
[16] = test system: Rattus norvegicus; test: Compound was tested in vivo for DOPA accumulation in corpus striatum against reserpine-pretreated rats; P=significant partial reduction only at the highest dose tested (50).; type: functional, organism-based
[17] = test system: Rattus norvegicus; test: The Compound was tested in vivo for DOPA accumulation in limbic system against reserpine-pretreated rats; P=significant partial reduction only at the highest dose tested (50).; type: functional, organism-based
[18] = test system: Rattus norvegicus; test: The Compound was tested in vivo for DOPA accumulation in hemispheres (cortex) against reserpine-pretreated rats; I=inactive at the highest dose tested (50).; type: functional, organism-based
[19] = test system: Rattus norvegicus; test: In vivo for DOPA accumulation in corpus striatum against reserpine-pretreated rats.; type: functional
[20] = test system: Rattus norvegicus; test: In vivo for 5-HTP accumulation in hemispheres (cortex) against reserpine-pretreated rats.; type: functional
[21] = test system: Rattus norvegicus; test: In vivo for DOPA accumulation in limbic system against reserpine-pretreated rats.; type: functional
[22] = test system: Rattus norvegicus; test: The Compound was tested in vivo for DOPA accumulation in hemispheres (cortex) against reserpine-pretreated rats;I= inactive at the highest dose (12.5); type: functional, organism-based
[23] = test system: Rattus norvegicus; test: Compound was tested in vivo for DOPA accumulation in corpus striatum against reserpine-pretreated rats;P= significant partial reduction only at the highest dose tested (50).; type: functional, organism-based
[24] = test system: Rattus norvegicus; test: The Compound was tested in vivo for DOPA accumulation in hemispheres (cortex) against reserpine-pretreated rats;I= inactive at the highest dose tested (50).; type: functional, organism-based
[25] = target: T3, D(3) dopamine receptor; test: The compound was tested in vitro for binding affinity against cloned mammalian Dopamine receptor D3 expressed in CHO cells by, using [3H]spiperone as radioligand; type: cell-based
[26] = test system: Rattus norvegicus; test: The compound was tested in vivo for DOPA accumulation in hemispheres (cortex) against reserpine-pretreated rats; I= inactive at the highest dose tested (50).; type: functional, organism-based
[27] = test system: Rattus norvegicus; test: The compound was tested in vivo for DOPA accumulation in limbic system against reserpine-pretreated rats; I= inactive at the highest dose tested (50).; type: functional, organism-based
[28] = test system: Rattus norvegicus; test: compound was tested in vivo for 5-HTP accumulation in hemispheres (cortex) against reserpine-pretreated rats; type: functional
[29] = test system: Rattus norvegicus; test: compound was tested in vivo for 5-HTP accumulation in limbic system against reserpine-pretreated rats,; type: functional
[30] = test system: Rattus norvegicus; test: compound was tested in vivo for DOPA accumulation in corpus striatum against reserpine-pretreated rats; I= inactive at the highest dose tested (50).; type: functional, organism-based
[31] = test system: Rattus norvegicus; test: compound was tested in vivo for 5-HTP accumulation in corpus striatum against reserpine-pretreated rats, activity expressed as ED50; I= inactive at the highest dose tested (50).; type: functional, organism-based
[32] = test system: Rattus norvegicus; test: compound was tested in vivo for 5-HTP accumulation in hemispheres (cortex) against reserpine-pretreated rats; I= inactive at the highest dose tested (50).; type: functional, organism-based
[33] = test system: Rattus norvegicus; test: compound was tested in vivo for 5-HTP accumulation in limbic system against reserpine-pretreated rats; I= inactive at the highest dose tested (50).; type: functional, organism-based
[34] = test system: Rattus norvegicus; test: compound was tested in vivo for DOPA accumulation in corpus striatum against reserpine-pretreated rats; P=significant partial reduction only at the highest dose tested (50).; type: functional, organism-based

Structure (SMILES)	Ki [1]	Ki ([2]; read-out: Ki)	Ki [3]	Ki [4]	Ki ([5]; read-out: Ki)	ED50 [9]	ED50 [11]	Ki [14]	other results
CCCN(CCC)[C@@H]1CCc2ccc3[nH]cc(C(=O)C(N)=O)c3c2C1	17 nM	856 nM	54 nM	472 nM	–	–	–	–	Ki ([5]; cho-k1): Not Active
CCCN(CCC)[C@H]1CCc2ccc3[nH]cc(C=O)c3c2C1	–	939 nM	155 nM	423 nM	751 nM	–	–	–	ED50 [6]: inactive; ED50 [7]: 0.0052 µmol/kg
CCCN(CCC)C1CCc2cc(F)c3[nH]cc(C(=O)CC)c3c2C1 (centres undefined)	7.1 nM	–	36 nM	377 nM	542 nM	3.94 µmol/kg	6.34 µmol/kg	–	Ki ([2]; cho-k1): Not Active; ED50 [8]: Weak activity; ED50 [10]: Active; ED50 [12]: inactive; ED50 [13]: Weak activity
CCCN(CCC)[C@H]1CCc2ccc3[nH]cc(C#N)c3c2C1	0.5 nM	304 nM	42 nM	–	–	–	–	419 nM	Ki [15]: 391 nM; ED50 [16]: Weak activity; ED50 [17]: Weak activity; ED50 [18]: inactive
CCCN(CCC)[C@H]1CCc2cc(F)c3[nH]ccc3c2C1	3.7 nM	948 nM	–	4.4 nM	–	0.42 µmol/kg	0.74 µmol/kg	–	ED50 [19]: 0.43 µmol/kg; ED50 [20]: 0.83 µmol/kg; ED50 [21]: 0.8 µmol/kg; ED50 [22]: inactive
CCCN(CCC)C1CCc2ccc3[nH]cc(C(C)=O)c3c2C1 (centres undefined)	14 nM	587 nM	108 nM	–	–	16 µmol/kg	15.5 µmol/kg	206 nM	Ki [15]: 320 nM; ED50 [23]: Weak activity; ED50 [20]: 13 µmol/kg; ED50 [24]: inactive; ED50 [17]: Weak activity
CCCNC1CCc2cc(F)ccc2C1 (centres undefined)	134 nM	1510 nM	585 nM	–	–	–	–	162 nM	Ki [25]: 156 nM; ED50 [26]: inactive; ED50 [27]: inactive; ED50 [7]: 9.53 µmol/kg; ED50 [28]: 12.8 µmol/kg; ED50 [29]: 15.5 µmol/kg; ED50 [30]: inactive
CCCN(CCC)C1CCc2ccc3[nH]cc(CC(F)(F)F)c3c2C1 (centres undefined)	18 nM	409 nM	54 nM	–	–	–	–	86 nM	Ki [25]: 134 nM; ED50 [26]: inactive; ED50 [27]: inactive; ED50 [31]: inactive; ED50 [32]: inactive; ED50 [33]: inactive; ED50 [34]: Weak activity
CCCN(CCC)C1CCc2ccc3[nH]cc(C(=O)C(=O)N(CC)CC)c3c2C1 (centres undefined)	7.3 nM	–	–	–	–	–	–	–	–
CCCN(CCC)C1CCc2ccc3c(c2C1)CC(=O)N3 (centres undefined)	14 nM	194 nM	26 nM	11 nM	23 nM	0.41 µmol/kg	0.45 µmol/kg	–	ED50 [19]: 0.25 µmol/kg; ED50 [20]: 0.86 µmol/kg; ED50 [21]: 0.17 µmol/kg; ED50 [18]: inactive
CCCN(CCC)C1CCc2cc(F)c3c(ccn3C)c2C1 (centres undefined)	250 nM	1650 nM	217 nM	86 nM	52 nM	–	–	–	–
